Calls of active or inactive are those of the source. No cut-off for these calls is given here.
Experiments:
[1] = system: Mus musculus; test: CNS depressant activity in ip dosed Swiss-Webster mouse assessed as spontaneous motor activity by rotarod assay; type: functional
[2] = system: Rattus norvegicus; test: Toxicity in Wistar rat assessed as decrease in heart rate at 5 to 15 mg/kg, ip; type: organism-based; parameters: dose 5-15 mg/kg, route intraperitoneal; conditions: in vivo
[3] = system: Rattus norvegicus; test: Toxicity in Wistar rat assessed as marked ptosis at 5 to 15 mg/kg, ip; type: organism-based; parameters: dose 5-15 mg/kg, route intraperitoneal; conditions: in vivo
[4] = system: Rattus norvegicus; test: Toxicity in Wistar rat assessed as decrease in body temperature at 5 to 15 mg/kg, ip; type: organism-based; parameters: dose 5-15 mg/kg, route intraperitoneal; conditions: in vivo
[5] = Toxicity in ip dosed Swiss-Webster mouse after 24 hrs; type: organism-based; conditions: in vivo
[6] = system: Rattus norvegicus; test: Toxicity in Wistar rat assessed as decrease in respiration at 5 to 15 mg/kg, ip; type: organism-based; parameters: dose 5-15 mg/kg, route intraperitoneal; scale not given: the % may be the effect or the level left; conditions: in vivo
[7] = system: Mus musculus; test: Safety index, ratio of LD50 for toxicity in Swiss-Webster mouse to ED50 for CNS depressant activity in ip dosed Swiss-Webster by rotarod assay; type: functional
[8] = system: Mus musculus; test: Anticonvulsant activity in Swiss-Webster mouse assessed as protection against strychnine-induced seizure at 10 to 20 mg/kg, ip; type: functional, organism-based
[9] = system: Mus musculus; test: Anticonvulsant activity in Swiss-Webster mouse assessed as protection against pentylenetetrazole-induced seizure at 10 to 20 mg/kg, ip; type: functional, organism-based
[10] = system: Mus musculus; test: Anticonvulsant activity against pentylenetetrazole-induced seizure in Swiss-Webster mouse assessed as prolongation of time for onset of convulsion at 50 to 200 mg/kg, ip relative to control; type: functional
[11] = system: Mus musculus; test: Anticonvulsant activity against maximal electroshock-induced seizure in Swiss-Webster mouse assessed as prolongation of time for onset of convulsion at 50 to 200 mg/kg, ip relative to control; type: functional; conditions: dose mg/kg 50-200; route intraperitoneal
[12] = system: Mus musculus; test: CNS depressant activity in Swiss-Webster mouse assessed as forced motor activity at 50 to 200 mg/kg, ip by rotarod assay relative to control; type: functional; conditions: dose mg/kg 50-200; route intraperitoneal
[13] = system: Mus musculus; test: CNS depressant activity in Swiss-Webster mouse assessed as spontaneous motor activity at 50 to 200 mg/kg, ip by rotarod assay relative to control; type: functional; conditions: dose mg/kg 50-200; route intraperitoneal
[14] = system: Rattus norvegicus; test: Toxicity in Wistar rat assessed as marked ptosis at 50 to 200 mg/kg, ip; type: organism-based; parameters: dose 50-200 mg/kg, route intraperitoneal; conditions: in vivo
[15] = system: Mus musculus; test: Anticonvulsant activity against strychnine-induced seizure in Swiss-Webster mouse assessed as prolongation of time for onset of convulsion at 50 to 200 mg/kg, ip relative to control; type: functional; conditions: dose mg/kg 50-200; route intraperitoneal
[16] = system: Rattus norvegicus; test: Toxicity in Wistar rat assessed as decrease in body temperature at 50 to 200 mg/kg, ip; type: organism-based; parameters: dose 50-200 mg/kg, route intraperitoneal; conditions: in vivo
[17] = system: Rattus norvegicus; test: Toxicity in Wistar rat assessed as decrease in heart rate at 50 to 200 mg/kg, ip; type: organism-based; parameters: dose 50-200 mg/kg, route intraperitoneal; conditions: in vivo
[18] = system: Rattus norvegicus; test: Toxicity in Wistar rat assessed as decrease in respiration at 50 to 200 mg/kg, ip; type: organism-based; parameters: dose 50-200 mg/kg, route intraperitoneal; scale not given: the % may be the effect or the level left; conditions: in vivo

| Compound | ED50 [1] | LD50 at 24 h [5] | Ratio LD50/ED50 [7] | Activity [10] | Activity [11] | other results |
| --- | --- | --- | --- | --- | --- | --- |
| COC(=O)N1CCN(C)C1=S | 18 mg/kg | 25 mg/kg |  |  |  | Activity [2]: 8 bpm; Activity [3]: Non-toxic; T [4]: 1 °C; Activity [6]: 20% |
| CC(=O)N1CCN(C)C1=S |  | 40 mg/kg | 0.5 |  |  |  |
| O=C1NC(=O)C(c2ccccc2)(c2ccccc2)N1 [PHENYTOIN] | 10.7 mg/kg |  |  |  |  | Activity [8]: inactive; Activity [9]: inactive |
| COC(=O)N1CCN=C1SC |  | > 1000 mg/kg | 16.1 | Active | 106% |  |
| COC(=O)N1CCN=C1SCC(=O)c1ccccc1 |  | > 1000 mg/kg |  |  | 75% | inhibition (INH) [12]: 40%; Activity ([10]; dose mg/kg 50-200, route intraperitoneal): 134%; inhibition (INH) [13]: 85% |
| CSC1=NCCN1C(C)=O | 150 mg/kg | > 1000 mg/kg |  | Active | 90% | Activity [14]: Toxic; Activity [15]: 48%; T [16]: 3 °C; Activity [17]: 25 bpm; Activity [18]: 50% |

Source: ChEMBL document CHEMBL3272311, “Syntheses and pharmacological activity of substituted imidazolidinethiones and thiomidazolines” (J Med Chem, 1977)
